Measurements reported in ChEMBL document CHEMBL4483862, “Open-source discovery of chemical leads for next-generation chemoprotective antimalarials” (2018).

Tested on: Plasmodium berghei
Assay: Luciferase/luciferin-expressing antifolate-resistant parasites were used to infect a culture of HepG2 cells that were pre-incubated with compounds. Infected hepatocytes emit light due to the luciferase reaction. Assay results are presented as the percent inhibition of light emission compared to control. […]
Assay type: functional
Details: sporozoite; for IC50: read-out: LUCIFERASE INFECTION ASSAY - IC50; for IC90: read-out: LUCIFERASE INFECTION ASSAY - IC90

Cc1c(Cl)cn2c(=O)cc(CN3CCN(c4ccccc4)CC3)nc2c1Cl
IC50: > 10 µM
IC90: > 10 µM

Cc1cc(C)c(-c2csc(NC(=O)c3nnc(O)c4ccccc34)n2)c(C)c1
IC50: 3.82 µM
IC90: 5.46 µM

O=C1Nc2ccc([N+](=O)[O-])cc2C12NNc1ccccc1O2 (centres undefined)
IC50: > 10 µM
IC90: > 10 µM

CC(C)Cn1c(-c2cc([N+](=O)[O-])ccc2Cl)nc2c1c(=O)[nH]c(=O)n2Cc1ccccc1
IC50: > 10 µM
IC90: > 10 µM

CCOC(=O)C1=C(NC(=O)Nc2ccc(Cl)c(Cl)c2)Nc2ccccc2N=C1CC
IC50: > 10 µM
IC90: > 10 µM

CN1/C(=C\C(=O)C[n+]2ccc3ccccc3c2)C(C)(C)c2ccccc21
IC50: 1.05 µM
IC90: 1.83 µM

CCOC(=O)c1c(-c2ccccc2)csc1NC(=O)Cn1ncc(Cl)c(Cl)c1=O
IC50: 3.35 µM
IC90: 4.1 µM

COc1cc(OC)c(NC(=O)c2cc3ccccc3cc2OCC(=O)NC(C)c2ccccc2)cc1Cl (centres undefined)
IC50: > 10 µM
IC90: > 10 µM

Cc1ccc(-n2c(SCc3nc4ccccc4c(=O)o3)nnc2-c2ccccc2)cc1C
IC50: > 10 µM
IC90: > 10 µM

CC(Sc1nnc(-c2ccc(C(C)(C)C)cc2)n1Cc1ccco1)C(=O)Nc1ccc(Cl)cn1 (centres undefined)
IC50: > 10 µM
IC90: > 10 µM

Cn1c(N)c(C(=O)COC(=O)c2cc(-c3ccccc3)nc3ccc(Br)cc23)c(=O)n(C)c1=O
IC50: > 10 µM
IC90: > 10 µM

Cc1c(-c2cc(-c3ccc(Cl)cc3)nc3ccccc23)oc2ccc(F)cc2c1=O
IC50: > 10 µM
IC90: > 10 µM

CCC(NCC(O)COc1ccccc1C(C)C)C12CC3CC(CC(C3)C1)C2 (centres undefined)
IC50: > 10 µM
IC90: > 10 µM

COc1ccc(-c2nn(-c3ccccc3)cc2/C=C/C(=O)Nc2nc3c(C)cccc3s2)cc1OC
IC50: 6.8 µM
IC90: > 10 µM

Cc1nn(Cc2ccccc2Cl)c(Cl)c1/C=C/C(=O)OC(C)C(=O)N1CCCc2ccccc21 (centres undefined)
IC50: > 10 µM
IC90: > 10 µM

Cc1sc(NC(=O)Cc2coc3cc4c(cc23)CCC4)nc1-c1ccc(Cl)cc1
IC50: > 10 µM
IC90: > 10 µM

O=C(/C=C/c1cccc(NC(=O)c2ccccc2Cl)c1)c1ccc2c(c1)-c1ccccc1C2
IC50: > 10 µM
IC90: > 10 µM

CC(C)CCNC(=O)NC(=O)CSc1nn(-c2ccc(F)cc2)c(=S)s1
IC50: > 10 µM
IC90: > 10 µM

S=c1[nH]c2ccccc2n1C1CCCCC1
IC50: > 10 µM
IC90: > 10 µM

CC(C)[C@H](NC(=O)c1ccc(C(C)(C)C)cc1)C(=O)Nc1nc2ccccc2[nH]1
IC50: > 10 µM
IC90: > 10 µM

Cc1cc(=O)oc2cc(OCC(=O)OCC(=O)c3c(-c4ccccc4)[nH]c4ccccc34)ccc12
IC50: 1.85 µM
IC90: 7.83 µM

Cc1ccc2cc(COC(=O)c3cc4c(s3)CCC(C)C4)c(Cl)nc2c1 (centres undefined)
IC50: > 10 µM
IC90: > 10 µM

Cc1ccc(-c2nnc(SCC(=O)N3N=C(c4ccc5ccccc5c4)CC3c3ccccc3)[nH]2)cc1 (centres undefined)
IC50: > 10 µM
IC90: > 10 µM

COc1ccc(-n2c(C)cc(C(=O)COC(=O)[C@@H](NS(=O)(=O)c3ccc4c(c3)OCCO4)C(C)C)c2C)cc1
IC50: > 10 µM
IC90: > 10 µM

COC(=O)c1sc(NC(=O)COC(=O)C2Cc3ccccc3CN2S(=O)(=O)c2cccs2)c(C(=O)OC)c1C (centres undefined)
IC50: > 10 µM
IC90: > 10 µM

Cc1cc(NC(=O)CSc2ncc(-c3ccc(Cl)cc3)n2-c2ccccc2C)no1
IC50: 9.42 µM
IC90: > 10 µM

CCOc1ccc(-n2c(SCC(=O)c3c(N)n(C)c(=O)n(C)c3=O)nnc2-c2ccccc2Cl)cc1
IC50: 3.28 µM
IC90: 3.67 µM

CSc1nn(-c2ccc(C(=O)OCc3c(C)cc(C(C)(C)C)cc3C)cc2)c(=S)s1
IC50: > 10 µM
IC90: > 10 µM

c1ccc2c(CSCCC34CC5CC(CC(C5)C3)C4)cccc2c1
IC50: > 10 µM
IC90: > 10 µM

O=C(COC(=O)COc1ccc2c3c(c(=O)oc2c1)CCC3)Nc1ccc(F)c(F)c1F
IC50: > 10 µM
IC90: > 10 µM

Cc1nn(-c2ccc(F)cc2)c(C)c1/C=C/C(=O)OCC(=O)Nc1cc(S(=O)(=O)N2CCOCC2)ccc1Cl
IC50: > 10 µM
IC90: > 10 µM

CCCCN1C(=O)c2ccc(C(=O)C(C#N)c3nc4ccccc4[nH]3)cc2C1=O (centres undefined)
IC50: > 10 µM
IC90: > 10 µM

Cc1cnc(NC(=O)c2ccc(Cl)c(S(=O)(=O)N(Cc3ccccc3)c3ccccc3Cl)c2)s1
IC50: > 10 µM
IC90: > 10 µM

CCOC(=O)c1c(C)[nH]c(C(=O)COC(=O)c2nc(-c3ccccc3)n(-c3ccccc3)n2)c1C
IC50: > 10 µM
IC90: > 10 µM

CCc1c(C)sc2nc(SCC(=O)Nc3cc(C)on3)n(-c3ccc(O)cc3C)c(=O)c12
IC50: 3.89 µM
IC90: 8.83 µM

O=C(NC1CCCc2ccccc21)c1oc2ccccc2c1CSc1nccs1 (centres undefined)
IC50: 6.48 µM
IC90: > 10 µM

Cc1cc(C(=O)CSc2nc3cc([N+](=O)[O-])ccc3n2-c2ccccc2)c(C)n1Cc1ccco1
IC50: > 10 µM
IC90: > 10 µM

O=C(COC(=O)/C=C/c1cn(-c2ccccc2)nc1-c1ccc(Cl)cc1)NC(=O)NC1CCCC1
IC50: 9.03 µM
IC90: > 10 µM

Cc1cc(C(=O)C(C)OC(=O)c2ccc(S(C)(=O)=O)c([N+](=O)[O-])c2)c(C)n1-c1ccc(Cl)cc1 (centres undefined)
IC50: > 10 µM
IC90: > 10 µM

CCCCNS(=O)(=O)c1ccc2nc(SCc3cccc(OC)c3)[nH]c2c1
IC50: > 10 µM
IC90: > 10 µM

Cc1ccc(C(C)(C)C)cc1S(=O)(=O)Nc1ccc(C(=O)OC(C)c2nc(=O)c3c(C)c(C)sc3[nH]2)cc1 (centres undefined)
IC50: > 10 µM
IC90: > 10 µM

Cc1noc(C)c1COc1ccc(C(=O)OCC(=O)NC(C)C23CC4CC(CC(C4)C2)C3)cc1 (centres undefined)
IC50: > 10 µM
IC90: > 10 µM

COc1ccc(NC(=O)C2C(=S)NC(=N)C(C#N)C2c2ccc(Cl)cc2)cc1 (centres undefined)
IC50: > 10 µM
IC90: > 10 µM

Cc1ccccc1C(=O)N1CCC(C(=O)Oc2ccc(Cl)c3ccccc23)CC1
IC50: > 10 µM
IC90: > 10 µM

COc1ccc(-n2c(C)cc(/C=C(\C#N)C(=O)OCC(=O)Nc3ccc(Cl)c(C(F)(F)F)c3)c2C)cc1
IC50: > 10 µM
IC90: > 10 µM

CCC(C)c1ccc(-c2cc(C(=O)OCC(=O)N3c4ccccc4NC(=O)C3(C)C)c3ccccc3n2)cc1 (centres undefined)
IC50: 8.86 µM
IC90: > 10 µM

Cn1c(N)c(C(=O)COC(=O)c2oc3ccccc3c2CSC2CCCCC2)c(=O)n(C)c1=O
IC50: > 10 µM
IC90: > 10 µM

COc1ccc(-n2c(C)cc(C(=O)CSc3nc4c(n3-c3ccccc3)CCCC4)c2C)cc1
IC50: > 10 µM
IC90: > 10 µM

O=C(Cc1csc(-c2ccccc2)n1)Nc1nc2c(s1)CCCC2
IC50: > 10 µM
IC90: > 10 µM

CCc1c(C)sc2nc(SCc3nc4ccccc4s3)n(-c3ccc(O)cc3C)c(=O)c12
IC50: > 10 µM
IC90: > 10 µM

Clc1nc2ccccc2cc1/C=N/Cc1ccc2c(c1)OCO2
IC50: > 10 µM
IC90: > 10 µM

CCn1c(C)nc2cc(C(=O)NNC(=O)c3cc(=O)[nH]c4ccccc34)ccc21
IC50: > 10 µM
IC90: > 10 µM

C=CCN(c1ccccc1)S(=O)(=O)c1cc(C(=O)NCc2ccc3c(c2)OCO3)ccc1Cl
IC50: > 10 µM
IC90: > 10 µM

CCOC(=O)C1=C(CSc2nc(-c3ccc(C)cc3)c(-c3ccc(C)cc3)[nH]2)NC(=O)NC1C (centres undefined)
IC50: > 10 µM
IC90: > 10 µM

CC(C)c1ccc(N(C(=O)CC(c2ccccc2)c2ccccc2)c2nc3ccccc3s2)cc1
IC50: > 10 µM
IC90: > 10 µM

Cc1nnnn1/C(=C\c1ccccc1)C(=O)OCCOc1ccccc1Cl
IC50: > 10 µM
IC90: > 10 µM

O=C(/C=C/c1cn(-c2ccccc2)nc1-c1ccc(F)cc1)NCC1(N2CCCCC2)CCCCC1
IC50: > 10 µM
IC90: > 10 µM

COc1ccc(/C=C(\C#N)c2n[nH]c(=O)c3ccccc23)cc1
IC50: 4.17 µM
IC90: > 10 µM

CCCCn1c(SCC(=O)Nc2cc(C(F)(F)F)ccc2N2CCOCC2)nc2ccccc21
IC50: > 10 µM
IC90: > 10 µM

CC(C)(c1ccccc1)c1ccc(OCC(O)CNCCSc2ccc(Br)cc2)cc1 (centres undefined)
IC50: > 10 µM
IC90: > 10 µM

CC(C)c1nc(-c2c(N)n(Cc3ccccc3)c(=O)n(C)c2=O)sc1C(=O)c1cc(F)ccc1F
IC50: 9.55 µM
IC90: > 10 µM

Cc1ccc(S(=O)(=O)N(C)Cc2ccc(-c3nnc4n3-c3ccccc3SC4)cc2)cc1
IC50: 3.08 µM
IC90: > 10 µM

COc1ccc(-c2csc(NC(=O)c3cc4cc5ccc(OC)cc5nc4s3)n2)cc1
IC50: > 10 µM
IC90: > 10 µM

O=C(O)C1CC=CCC1C(=O)NN=c1nc[nH]c2ccccc12 (centres undefined)
IC50: > 10 µM
IC90: > 10 µM

O=C(CCN1c2ccccc2Sc2ccccc21)N1CCCS/C1=N\c1ccccc1
IC50: > 10 µM
IC90: > 10 µM

CSc1ccc(/C=C2\SC(=O)N(CCNC(=O)c3nc4nccc(C)n4n3)C2=O)cc1
IC50: > 10 µM
IC90: > 10 µM

O=C(Nc1nc(-c2ccccn2)cs1)c1cc([N+](=O)[O-])ccc1N1CCC(Cc2ccccc2)CC1
IC50: > 10 µM
IC90: > 10 µM

CCCCn1nc(C(=O)Nc2cc(S(=O)(=O)N(CC)CC)ccc2N2CCOCC2)c2ccccc2c1=O
IC50: > 10 µM
IC90: > 10 µM

Clc1nc2ccccc2cc1/C=N/C1CCCCC1
IC50: > 10 µM
IC90: > 10 µM

CCNC(=S)N/N=C1\C(=O)Nc2ccc(C(C)C)cc21
IC50: 4.21 µM
IC90: 7.94 µM

CC(C)(C)C(=O)/C=c1\s/c(=C\c2ccsc2)c(=O)n1CC(=O)N1CCc2ccccc21
IC50: > 10 µM
IC90: > 10 µM

CCOC(C(=O)Nc1ccccc1Cc1ccccc1)(c1ccccc1)c1ccccc1
IC50: > 10 µM
IC90: > 10 µM

O=c1c(Cl)c(Cl)cnn1CCOc1cccc(Br)c1
IC50: > 10 µM
IC90: > 10 µM

CCN(c1ccccc1)S(=O)(=O)c1ccc(Cl)c(NC(=O)C2(c3ccc(Cl)cc3)CCCC2)c1
IC50: > 10 µM
IC90: > 10 µM

COc1ccc(Cl)cc1NC(=O)CN(C)c1nc(-c2cccnc2)nc2sc3c(c12)CCCC3
IC50: > 10 µM
IC90: > 10 µM

OC(CNC1CCCc2ccccc21)COC(c1ccc(F)cc1)c1ccc(F)cc1 (centres undefined)
IC50: > 10 µM
IC90: > 10 µM

COc1ccccc1NS(=O)(=O)c1ccc2oc(Nc3ccc(Cl)c(C(F)(F)F)c3)nc2c1
IC50: > 10 µM
IC90: > 10 µM
